# Test results: ChEMBL document CHEMBL1201862, “PubChem BioAssay data set” (2004)
# The source made the active and inactive calls.
# Tests used:
# [1] = inhibitors of HIV Env-driven cell fusion, dose response, cherry-pick (AID 652057); format: functional, cell-based
# [2] = off-target signal loss in HeLa-CEM21 co-culture – HeLa F-luc CTL cells, cherry-picked, counter-screen for HIV-1 Env fusion inhibitor project, dose response (AID 652040); format: functional, cell-based;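 also: potency for signal decrease marking cytotoxic or nonspecific inhibition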
# [3] = inhibitors of clade B AD8 Env fusion, dose response, cell-based, cherry-pick (AID 652062); format: functional;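 also: luciferase signal from cell-cell fusion driven by HIV-1 clade B AD8 Env; potency is for inhibitors of fusion seen as a drop in luminescence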
# [4] = ZM109 Env clade C HIV-1 fusion inhibitors, dose response, HeLa effector, CEM target cells, luciferase, cherry-pick (AID 652058); format: functional, cell-based
# [5] = biological target: T1, Sentrin-specific protease 8 (Homo sapiens, UniProt Q96LD8); format: functional
# T1 sequence (Q96LD8 whole entry): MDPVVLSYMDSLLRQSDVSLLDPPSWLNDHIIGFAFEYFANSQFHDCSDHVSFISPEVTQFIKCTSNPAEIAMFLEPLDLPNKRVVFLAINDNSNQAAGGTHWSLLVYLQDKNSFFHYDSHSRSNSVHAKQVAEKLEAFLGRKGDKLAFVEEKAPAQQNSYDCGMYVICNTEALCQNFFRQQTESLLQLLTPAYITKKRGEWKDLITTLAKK
# [6] = biological target: T1, Sentrin-specific protease 8; format: functional; remark: listed apart in the source
# Caspase-6 = biological target: T2, Caspase-6 (Homo sapiens, UniProt P55212); assay: human caspase-6 inhibitors, dose response, biochemical, VEID-R110 fluorescence, cherry-pick (AID 720632)
# T2 sequence (P55212 whole entry): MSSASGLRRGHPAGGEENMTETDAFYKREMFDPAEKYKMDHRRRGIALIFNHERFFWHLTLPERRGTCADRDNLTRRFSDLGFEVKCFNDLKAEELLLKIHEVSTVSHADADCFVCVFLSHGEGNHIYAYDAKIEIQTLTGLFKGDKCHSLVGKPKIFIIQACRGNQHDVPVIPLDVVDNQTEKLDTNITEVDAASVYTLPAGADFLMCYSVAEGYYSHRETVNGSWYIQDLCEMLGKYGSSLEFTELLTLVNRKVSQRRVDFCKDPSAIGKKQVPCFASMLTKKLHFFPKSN
# Cytochrome P450 1A2 = biological target: T3, Cytochrome P450 1A2 (Homo sapiens, UniProt P05177);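 also: PubChem cytochrome P450 panel assay, CYP1A2 panel member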
# T3 sequence (P05177 whole entry): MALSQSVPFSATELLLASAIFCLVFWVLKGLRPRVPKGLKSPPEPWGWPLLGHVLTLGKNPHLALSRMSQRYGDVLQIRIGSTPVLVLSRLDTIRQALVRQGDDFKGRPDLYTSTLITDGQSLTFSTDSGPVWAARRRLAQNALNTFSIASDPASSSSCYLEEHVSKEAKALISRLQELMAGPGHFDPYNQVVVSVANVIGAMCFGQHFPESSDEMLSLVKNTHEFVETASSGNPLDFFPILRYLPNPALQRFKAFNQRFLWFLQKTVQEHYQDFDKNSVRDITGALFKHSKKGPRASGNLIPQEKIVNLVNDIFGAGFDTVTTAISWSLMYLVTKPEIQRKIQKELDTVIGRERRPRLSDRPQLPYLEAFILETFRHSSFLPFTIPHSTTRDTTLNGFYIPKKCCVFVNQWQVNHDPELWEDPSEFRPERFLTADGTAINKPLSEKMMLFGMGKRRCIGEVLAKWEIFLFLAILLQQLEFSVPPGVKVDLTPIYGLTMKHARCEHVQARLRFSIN
# fMet-Leu-Phe receptor = biological target: T4, fMet-Leu-Phe receptor (Homo sapiens, UniProt P21462); assay: FPR ligands, dose response (AID 519); format: functional
# T4 sequence (P21462 whole entry): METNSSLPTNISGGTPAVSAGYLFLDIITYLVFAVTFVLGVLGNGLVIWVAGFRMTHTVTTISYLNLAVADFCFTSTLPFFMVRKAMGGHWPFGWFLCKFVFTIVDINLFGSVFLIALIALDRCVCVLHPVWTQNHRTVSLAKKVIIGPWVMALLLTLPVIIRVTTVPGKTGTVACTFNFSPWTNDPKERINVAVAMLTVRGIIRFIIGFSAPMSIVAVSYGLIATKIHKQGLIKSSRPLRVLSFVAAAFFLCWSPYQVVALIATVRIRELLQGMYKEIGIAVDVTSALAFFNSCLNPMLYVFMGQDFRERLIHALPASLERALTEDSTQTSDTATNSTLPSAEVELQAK
# cells [7] = format: functional
# [8] = biological target: Peroxisome proliferator-activated receptor gamma/Nuclear receptor coactivator 3 (Homo sapiens, UniProt P37231); format: functional;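 also: agonist potency for raising coactivator recruitment to the receptor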
# [9] = THP-1 cell cytotoxicity, dose response, cytotoxicity control for non-replicating M. tuberculosis project (AID 489025); format: functional
# [10] = biological target: Peroxisome proliferator-activated receptor gamma/Nuclear receptor coactivator 2 (Homo sapiens, UniProt P37231); format: functional;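 also: agonist potency for raising coactivator recruitment to the receptor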
# [11] = biological target: Peroxisome proliferator-activated receptor gamma/Nuclear receptor coactivator 1 (Homo sapiens, UniProt P37231); format: functional;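 also: agonist potency as compounds enhance coactivator SRC-1 recruitment to PPARgamma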
# [12] = CEM21 lymphoblast cell cytotoxicity, dose response, cytotoxicity control for viral fusion inhibitor project, CellTiter-Glo luminescence, cherry-picked (AID 652042); format: functional, cell-based;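 also: potency for signal decrease meaning cytotoxicity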
# cells [13] = format: functional, cell-based
# [14] = biological target: T5, Nuclear receptor subfamily 0 group B member 1 (Homo sapiens, UniProt P51843); format: functional, cell-based;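 also: HEK293T cells transfected with SF-1 and DAX-1 plus StAR promoter luciferase reporter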
# T5 sequence (P51843 whole entry): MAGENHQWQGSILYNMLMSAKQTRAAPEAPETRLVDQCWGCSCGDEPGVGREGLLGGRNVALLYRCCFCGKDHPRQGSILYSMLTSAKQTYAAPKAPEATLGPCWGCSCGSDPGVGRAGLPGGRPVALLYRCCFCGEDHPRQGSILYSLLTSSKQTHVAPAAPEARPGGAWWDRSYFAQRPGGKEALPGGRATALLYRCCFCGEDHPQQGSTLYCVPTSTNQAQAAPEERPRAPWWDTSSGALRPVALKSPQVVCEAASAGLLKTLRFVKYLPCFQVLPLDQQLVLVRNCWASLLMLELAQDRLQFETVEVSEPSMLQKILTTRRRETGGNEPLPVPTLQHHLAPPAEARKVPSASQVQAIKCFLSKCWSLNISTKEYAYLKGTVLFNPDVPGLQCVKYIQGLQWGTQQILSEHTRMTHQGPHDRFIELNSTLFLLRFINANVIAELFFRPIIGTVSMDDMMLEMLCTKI
# [15] = Luminescence Cell-Based Dose Confirmation HTS to Identify Inhibitors of Platelet Dense Granule Release. [Related pubchem assays: 1663 (Primary HTS), 1678 (Summary of Project)]; format: functional
# [16] = biological target: Luciferin 4-monooxygenase (Photinus pyralis, UniProt P08659); assay: firefly luciferase enzyme inhibitors, dose response, biochemical, luminescence (AID 1891)
# [17] = A cytotoxicity screen of small molecule inhibitors of the PhoP region in Salmonella typhi identified in the primary screen. [Related pubchem assays: 1850, 1864, 1985 ]; format: functional
# [18] = inhibitors of intracellular T. cruzi replication, confirmation, NIH3T3 host cells, beta-gal luminescence (AID 2044); format: functional, cell-based;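 also: intracellular parasites grown in NIH/3T3 mouse fibroblasts as host cells; luminescent beta-galactosidase reporter signal from transgenic T. cruzi replicating inside host cells; inhibitors lower the luminescence signal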
# [19] = cytotoxicity toward NIH3T3 fibroblasts, dose response, counter-screen, cell-based, ATP luminescence, mouse fibroblasts (AID 2010); format: functional;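 also: cells exposed to compound for about 90 hours before reading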
# [20] = P. falciparum ATP4 D1247Y mutant growth inhibitors, dose response, NITD609-resistant line, SYBR Green, dry powder (AID 1159571); format: functional, cell-based;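 also: parasites synchronized at ring stage by sorbitol before testing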
# [21] = P. falciparum Dd2 growth inhibitors, dose response, SYBR Green, dry powder samples (AID 1159566); format: functional, cell-based;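 also: potency for growth inhibition with lower SYBR green DNA signal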
# [22] = P. falciparum 3D7-ScDHODH growth inhibitors, dose response, SYBR Green, dry powder samples (AID 1159570); format: functional, cell-based;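 also: parasite growth measured after 72 hours of compound exposure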
# [23] = P. falciparum Dd2 growth inhibitors, dose response, SYBR Green, cherry-picked samples (AID 1159567); format: functional, cell-based
# HEK293 [24] = assay: cells; conditions: Homo sapiens
# HEK293 [25] = assay: cells; conditions: Homo sapiens; remark: listed apart in the source
# Trypsin = Trypsin (Sus scrofa, UniProt P00761); assay: porcine trypsin inhibitors, dose response, selectivity assay for Rce1 protease inhibitor project, biochemical, quenched peptide fluorescence, cherry-pick (AID 488789)
# [26] = biological target: Induced myeloid leukemia cell differentiation protein Mcl-1 (Homo sapiens, UniProt Q07820); format: functional
# [27] = biological target: Dual specificity tyrosine-phosphorylation-regulated kinase 1A (Rattus norvegicus, UniProt Q63470); format: biochemical, Homo sapiens
# [28] = NIH-3T3 fibroblast cytotoxicity, dose response, cytotoxicity control, cell-based, fluorescence, Alamar Blue, secondary assay (AID 2327); format: functional;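 also: NIH-3T3 mouse fibroblasts cultured with fluconazole at 8 µg/mL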
# [29] = C. albicans growth with fluconazole, confirmation, fluorescence, retest (AID 2467); format: functional, cell-based
# Sequence of Peroxisome proliferator-activated receptor gamma/Nuclear receptor coactivator 2 (P37231 whole entry): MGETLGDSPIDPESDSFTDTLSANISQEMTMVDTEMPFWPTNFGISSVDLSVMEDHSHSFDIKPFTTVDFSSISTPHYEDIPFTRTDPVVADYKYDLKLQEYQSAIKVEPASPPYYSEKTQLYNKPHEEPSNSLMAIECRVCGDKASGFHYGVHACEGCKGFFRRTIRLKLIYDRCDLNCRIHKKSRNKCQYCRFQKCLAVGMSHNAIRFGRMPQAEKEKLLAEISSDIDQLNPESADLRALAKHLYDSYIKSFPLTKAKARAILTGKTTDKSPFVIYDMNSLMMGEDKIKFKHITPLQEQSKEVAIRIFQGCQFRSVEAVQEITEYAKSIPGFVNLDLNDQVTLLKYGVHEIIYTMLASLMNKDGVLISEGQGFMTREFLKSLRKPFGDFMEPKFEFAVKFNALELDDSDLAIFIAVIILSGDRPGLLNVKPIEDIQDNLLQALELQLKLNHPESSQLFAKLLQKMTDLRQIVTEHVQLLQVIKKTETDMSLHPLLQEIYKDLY
# Sequence of Peroxisome proliferator-activated receptor gamma/Nuclear receptor coactivator 2 (Q15596 whole entry, further chain): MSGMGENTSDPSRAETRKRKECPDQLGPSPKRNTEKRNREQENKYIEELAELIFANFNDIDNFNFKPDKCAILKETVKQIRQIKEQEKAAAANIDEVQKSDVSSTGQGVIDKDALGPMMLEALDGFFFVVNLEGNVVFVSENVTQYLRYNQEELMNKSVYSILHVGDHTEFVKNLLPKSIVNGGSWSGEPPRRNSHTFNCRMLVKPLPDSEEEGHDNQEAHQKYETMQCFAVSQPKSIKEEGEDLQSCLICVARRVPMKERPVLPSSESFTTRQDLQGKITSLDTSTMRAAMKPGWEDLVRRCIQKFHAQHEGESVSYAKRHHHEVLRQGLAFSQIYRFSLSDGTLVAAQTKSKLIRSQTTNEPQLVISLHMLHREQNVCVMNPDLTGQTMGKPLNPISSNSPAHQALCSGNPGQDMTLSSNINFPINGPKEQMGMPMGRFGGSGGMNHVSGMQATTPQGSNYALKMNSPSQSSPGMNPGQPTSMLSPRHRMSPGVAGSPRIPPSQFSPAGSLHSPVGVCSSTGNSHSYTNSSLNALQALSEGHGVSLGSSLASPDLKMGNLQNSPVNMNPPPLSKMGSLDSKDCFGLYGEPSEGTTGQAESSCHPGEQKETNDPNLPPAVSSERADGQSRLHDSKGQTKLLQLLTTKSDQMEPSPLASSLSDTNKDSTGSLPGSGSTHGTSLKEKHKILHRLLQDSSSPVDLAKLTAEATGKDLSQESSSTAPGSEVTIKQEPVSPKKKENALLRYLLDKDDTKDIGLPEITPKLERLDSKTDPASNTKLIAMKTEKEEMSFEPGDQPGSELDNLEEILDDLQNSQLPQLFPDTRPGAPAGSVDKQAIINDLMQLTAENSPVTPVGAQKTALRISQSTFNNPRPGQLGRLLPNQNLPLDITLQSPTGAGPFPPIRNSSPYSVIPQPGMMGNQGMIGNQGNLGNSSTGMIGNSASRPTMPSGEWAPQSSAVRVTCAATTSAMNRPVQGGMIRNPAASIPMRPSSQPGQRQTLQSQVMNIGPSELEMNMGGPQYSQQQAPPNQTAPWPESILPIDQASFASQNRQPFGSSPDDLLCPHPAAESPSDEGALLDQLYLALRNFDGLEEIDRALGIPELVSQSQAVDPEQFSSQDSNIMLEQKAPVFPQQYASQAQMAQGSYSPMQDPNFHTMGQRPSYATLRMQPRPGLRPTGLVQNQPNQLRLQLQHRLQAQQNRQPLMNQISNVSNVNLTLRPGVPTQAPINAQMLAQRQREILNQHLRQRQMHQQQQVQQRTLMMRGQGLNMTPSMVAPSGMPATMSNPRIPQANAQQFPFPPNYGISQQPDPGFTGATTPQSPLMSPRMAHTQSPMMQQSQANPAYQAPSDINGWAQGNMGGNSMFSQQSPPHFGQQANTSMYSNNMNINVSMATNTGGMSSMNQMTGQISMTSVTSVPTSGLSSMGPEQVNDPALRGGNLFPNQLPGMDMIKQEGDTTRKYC
# Sequence of Peroxisome proliferator-activated receptor gamma/Nuclear receptor coactivator 3 (P37231 whole entry): as the sequence (P37231 whole entry) above
# Sequence of Peroxisome proliferator-activated receptor gamma/Nuclear receptor coactivator 3 (Q9Y6Q9 whole entry, further chain): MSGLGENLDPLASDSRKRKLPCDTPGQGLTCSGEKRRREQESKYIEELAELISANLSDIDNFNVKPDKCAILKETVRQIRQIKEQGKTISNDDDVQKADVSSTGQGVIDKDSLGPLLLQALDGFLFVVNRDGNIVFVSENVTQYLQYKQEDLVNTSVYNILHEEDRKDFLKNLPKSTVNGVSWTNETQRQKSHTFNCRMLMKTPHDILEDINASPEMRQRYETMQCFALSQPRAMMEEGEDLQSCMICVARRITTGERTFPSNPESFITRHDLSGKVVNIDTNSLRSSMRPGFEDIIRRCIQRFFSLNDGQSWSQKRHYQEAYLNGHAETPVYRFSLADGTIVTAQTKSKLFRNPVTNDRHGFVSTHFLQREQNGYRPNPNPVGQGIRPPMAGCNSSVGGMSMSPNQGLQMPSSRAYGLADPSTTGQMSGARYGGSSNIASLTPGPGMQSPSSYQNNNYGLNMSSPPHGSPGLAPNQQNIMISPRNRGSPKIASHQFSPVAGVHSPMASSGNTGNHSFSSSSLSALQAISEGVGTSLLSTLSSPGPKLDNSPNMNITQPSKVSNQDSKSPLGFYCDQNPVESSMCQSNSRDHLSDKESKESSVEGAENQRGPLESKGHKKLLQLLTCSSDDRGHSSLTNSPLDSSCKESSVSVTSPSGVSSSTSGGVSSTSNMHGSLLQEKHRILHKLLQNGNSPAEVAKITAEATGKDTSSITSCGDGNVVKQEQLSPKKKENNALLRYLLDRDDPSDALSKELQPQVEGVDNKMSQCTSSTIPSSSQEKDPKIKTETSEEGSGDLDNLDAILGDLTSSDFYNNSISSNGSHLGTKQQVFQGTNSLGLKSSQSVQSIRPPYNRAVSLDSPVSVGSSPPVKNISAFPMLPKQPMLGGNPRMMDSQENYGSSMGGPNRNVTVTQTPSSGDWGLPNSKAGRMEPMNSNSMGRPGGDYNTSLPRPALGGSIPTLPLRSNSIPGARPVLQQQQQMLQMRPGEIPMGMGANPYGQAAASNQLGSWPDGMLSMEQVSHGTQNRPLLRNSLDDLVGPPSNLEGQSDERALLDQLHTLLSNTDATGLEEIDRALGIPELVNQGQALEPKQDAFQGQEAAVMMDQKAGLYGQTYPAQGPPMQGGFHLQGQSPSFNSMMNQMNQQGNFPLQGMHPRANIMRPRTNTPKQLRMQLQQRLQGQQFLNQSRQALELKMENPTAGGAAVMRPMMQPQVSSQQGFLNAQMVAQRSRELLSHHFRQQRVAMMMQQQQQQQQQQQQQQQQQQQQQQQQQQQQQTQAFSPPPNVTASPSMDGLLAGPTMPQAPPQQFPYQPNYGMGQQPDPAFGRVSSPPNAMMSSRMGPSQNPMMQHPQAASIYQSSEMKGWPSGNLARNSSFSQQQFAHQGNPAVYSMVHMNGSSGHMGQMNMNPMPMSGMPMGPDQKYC
# Sequence of Induced myeloid leukemia cell differentiation protein Mcl-1 (Q07820 whole entry): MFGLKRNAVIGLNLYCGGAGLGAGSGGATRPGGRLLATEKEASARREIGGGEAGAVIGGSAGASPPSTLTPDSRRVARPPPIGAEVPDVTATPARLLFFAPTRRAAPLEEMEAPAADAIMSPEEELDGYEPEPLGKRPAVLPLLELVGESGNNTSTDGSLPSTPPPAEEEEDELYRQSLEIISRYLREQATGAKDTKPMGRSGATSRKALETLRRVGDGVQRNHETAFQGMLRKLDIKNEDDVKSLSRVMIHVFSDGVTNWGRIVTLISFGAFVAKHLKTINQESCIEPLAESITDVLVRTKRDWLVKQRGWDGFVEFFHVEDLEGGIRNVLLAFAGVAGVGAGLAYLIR
# Sequence of Luciferin 4-monooxygenase (P08659 whole entry): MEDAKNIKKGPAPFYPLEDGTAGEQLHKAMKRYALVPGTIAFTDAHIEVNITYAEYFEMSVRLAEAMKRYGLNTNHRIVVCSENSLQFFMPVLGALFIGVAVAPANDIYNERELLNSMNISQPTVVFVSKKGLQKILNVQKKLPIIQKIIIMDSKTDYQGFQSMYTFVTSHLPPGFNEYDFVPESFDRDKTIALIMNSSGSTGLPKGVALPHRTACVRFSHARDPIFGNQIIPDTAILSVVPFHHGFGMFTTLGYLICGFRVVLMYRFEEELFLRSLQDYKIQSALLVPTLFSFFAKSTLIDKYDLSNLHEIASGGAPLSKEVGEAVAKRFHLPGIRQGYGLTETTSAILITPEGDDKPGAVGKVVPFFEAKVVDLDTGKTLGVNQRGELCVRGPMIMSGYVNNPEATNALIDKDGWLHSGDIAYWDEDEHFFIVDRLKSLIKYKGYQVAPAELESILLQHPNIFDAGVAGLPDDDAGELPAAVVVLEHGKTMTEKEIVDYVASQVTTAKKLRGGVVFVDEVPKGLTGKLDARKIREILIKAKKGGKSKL
# Sequence of Trypsin (P00761 whole entry): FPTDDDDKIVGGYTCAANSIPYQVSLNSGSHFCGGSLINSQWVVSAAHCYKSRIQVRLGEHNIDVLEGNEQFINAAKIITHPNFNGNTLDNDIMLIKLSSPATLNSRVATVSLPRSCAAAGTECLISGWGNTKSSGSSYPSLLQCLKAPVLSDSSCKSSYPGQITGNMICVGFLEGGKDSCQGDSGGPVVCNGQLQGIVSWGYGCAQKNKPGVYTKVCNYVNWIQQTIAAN
compound,measurement,setting,value
COc1ccc(S(=O)(=O)N2CCCCC2)cc1NC(=O)Cc1sc(C)nc1-c1ccc(F)cc1,AC50,[1],0.863 µM (active)
same,AC50,[2],2.18 µM (active)
same,AC50,[3],6.25 µM (active)
same,AC50,[4],2.59 µM (active)
O=C1Cc2ccccc2C(=O)N1Cc1cccc(Cl)c1,IC50,[5],0.528 µM (active)
same,IC50,[6],> 100 µM (inactive)
same,AC50,Caspase-6,13 µM (active)
COc1cccc(OC)c1/C(O)=C(\C#N)c1nc2ccccc2[nH]1,AC50,Cytochrome P450 1A2,12.6 µM (inconclusive)
same,Ki,fMet-Leu-Phe receptor,> 66.7 µM (inactive)
CCOC(=O)COc1ccc(/C=C2\NC(=S)N(CC)C2=O)cc1,IC50,cells [7],3.34 µM (active)
same,EC50,[8],> 79.4 µM (not active)
same,CC50,[9],> 40 µM (active)
same,EC50,[10],> 79.4 µM (not active)
same,EC50,[11],> 79.4 µM (not active)
CCN(CC(O)c1cccc(O)c1)C(=O)C12CC3CC(CC(C3)C1)C2 (stereo not drawn),AC50,[1],0.33 µM (active)
same,AC50,[12],46.4 µM (active)
same,AC50,[2],0.619 µM (active)
same,AC50,[3],3 µM (active)
same,AC50,[4],0.415 µM (active)
Brc1ccc(/C=N/c2ccc(Nc3ccccc3)cc2)s1,EC50,[8],> 79.4 µM (not active)
same,EC50,[10],> 79.4 µM (not active)
same,EC50,[11],> 79.4 µM (not active)
O=C(/C=C\Nc1ccc2c(c1)OCO2)c1cccs1,IC50,cells [13],> 67.5 µM (inactive)
same,IC50,[14],> 67.5 µM (inactive)
same,EC50,[15],6.14 µM (active)
same,EC50,[16],0.912 µM (active)
CC[N+](C)(CC)CCC[n+]1c(-c2ccccc2)c2cc(N)ccc2c2ccc(N)cc21 [PROPIDIUM],EC50,[17],> 50 µM (active)
O=C(CCS(=O)(=O)c1ccccc1)N(CCCN1CCOCC1)c1nc2ccc(F)cc2s1,IC50,cells [13],> 67.5 µM (inactive)
same,EC50,[18],2.06 µM (active)
same,IC50,[14],> 67.5 µM (inactive)
same,EC50,[19],6.18 µM (active)
CN1CCC(OC(=O)c2ccc(Cl)cc2Cl)CC1,EC50,[17],> 50 µM (active)
same,EC50,[18],0.127 µM (active)
same,EC50,[19],> 60 µM (not active)
COCCN1C(=O)C(O)=C(C(=O)c2cccs2)C1c1ccccc1 (stereo not drawn),Ki,fMet-Leu-Phe receptor,> 66.7 µM (inactive)
O=C(O)C1Oc2cc3ccccc3cc2O1,AC50,Caspase-6,8.44 µM (active)
O=C(COC(=O)c1ccc([N+](=O)[O-])o1)NC1CCS(=O)(=O)C1 (stereo not drawn),IC50,[5],8.96 µM (active)
same,IC50,[6],9.9 µM (active)
same,AC50,Caspase-6,39.7 µM (active)
O=C(Nc1ccccc1F)N1CCCCN2[C@H](CO)[C@H](c3ccc(C#Cc4cccnc4)cc3)[C@@H]2C1,AC50,[20],0.504 µM (active)
same,AC50,[21],0.507 µM (active)
same,AC50,[22],0.452 µM (active)
same,AC50,[23],0.86 µM (active)
Cc1cccc(N2CCN(C(=O)C3CCN(c4nnc(-n5cccc5)s4)CC3)CC2C)c1 (stereo not drawn),EC50,[17],> 50 µM (active)
COc1cccc(Nc2nc(C(N)CCc3ccccc3)cs2)n1 (stereo not drawn),EC50,HEK293 [24],> 59.6 µM (inactive)
same,AC50,[1],1.96 µM (active)
same,AC50,[12],17.1 µM (active)
same,EC50,HEK293 [25],> 59.6 µM (inactive)
same,AC50,[2],3.37 µM (active)
same,AC50,[3],3.36 µM (active)
same,AC50,[4],3.98 µM (active)
CC(=O)c1c(C)[nH]c(C(=O)OCC(=O)NCC(C)C)c1C,EC50,[17],> 50 µM (active)
N=c1oc2cc(O)ccc2cc1C(=O)Nc1nc2ccccc2s1,AC50,Trypsin,12.4 µM (active)
same,IC50,[26],3.21 µM (active)
N[C@@H](Cc1ccc(O)c(I)c1)C(=O)O [IOTYROSINE],Ki,fMet-Leu-Phe receptor,> 66.7 µM (inactive)
c1ccc2sc(NN=C3CCCCCC3)nc2c1,AC50,[27],3.89 µM (active)
same,EC50,[28],> 150 µM (inactive)
same,IC50,cells [13],> 67.5 µM (inactive)
same,EC50,[29],> 38 µM (not active)
same,IC50,[14],> 0.278 µM (active)
CCCCNC(=O)CSc1nc2ccccc2c(=O)n1Cc1ccc2c(c1)OCO2,EC50,[8],> 79.4 µM (not active)
same,EC50,[10],> 79.4 µM (not active)
same,EC50,[11],> 79.4 µM (not active)
